Measurements as given in PMC9090415, “Discovery of small molecule inhibitors of Plasmodium falciparum apicoplast DNA polymerase” (Journal of Enzyme Inhibition and Medicinal Chemistry, 2022).

Biological target: P. falciparum apicoplast DNA polymerase (Pf-apPOL) (Plasmodium falciparum, UniProt Q8ILY1)
Assay: Fluorescence-based high-throughput DNA polymerase assay (molecular beacon), primary screen and dose-response
Assay type: biochemical
Details: for DNA Pol: 90 min, 10 µM; for % inhibition apPOL 180' 2.5 / % inhibition apPOL 180' 5 / % inhibition apPOL 180' 10 / % inhibition apPOL 180' 20 / % inhibition apPOL 180' 40 / % inhibition apPOL 180' 80: read at 180'
In short: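 Single-point screening used 10 µM compound with 20 nM polymerase, 20 nM hairpin substrate and 6 µM dNTPs for 90 min at 25 °C. Confirmatory titrations (2.5–80 µM) followed fluorescence at three times, and IC50 was derived from a fit including a cooperativity term n.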

[1] = "DNA Pol" of the 186 hits list (screen value)
[2] = first dose-response, concentration 2.5
[3] = first dose-response, concentration 10
[4] = first dose-response, concentration 20

P. falciparum apicoplast DNA polymerase (Pf-apPOL), sequence (Q8ILY1 entry or part of it): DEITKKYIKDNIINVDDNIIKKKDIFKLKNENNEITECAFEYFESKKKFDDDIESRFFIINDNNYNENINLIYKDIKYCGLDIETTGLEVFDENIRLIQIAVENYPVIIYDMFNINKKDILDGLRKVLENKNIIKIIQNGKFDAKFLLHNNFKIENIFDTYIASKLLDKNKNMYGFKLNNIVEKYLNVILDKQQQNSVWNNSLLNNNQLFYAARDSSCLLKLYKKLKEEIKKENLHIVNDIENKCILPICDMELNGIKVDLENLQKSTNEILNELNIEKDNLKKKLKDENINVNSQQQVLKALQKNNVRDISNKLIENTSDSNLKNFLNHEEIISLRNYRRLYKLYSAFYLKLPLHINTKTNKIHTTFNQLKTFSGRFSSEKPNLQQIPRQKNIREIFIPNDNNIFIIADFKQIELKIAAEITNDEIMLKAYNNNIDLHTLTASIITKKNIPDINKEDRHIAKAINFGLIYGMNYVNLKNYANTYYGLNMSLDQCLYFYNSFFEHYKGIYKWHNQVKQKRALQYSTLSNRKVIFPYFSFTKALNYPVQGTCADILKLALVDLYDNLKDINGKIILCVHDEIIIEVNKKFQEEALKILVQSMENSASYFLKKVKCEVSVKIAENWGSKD

## CCOC(=O)C1=C2c3cc(OC)c(OC)cc3CC(C)(C)N2C(=O)C1=O [KU0193659]
[1]
  DNA Pol: 50
DRC-1, concentration 2.5
  % inhibition Apo pol 10': 0.5902%
  % inhibition Apol 90': 2.413%
  % inhibition apPOL 180': 2.939%
DRC-1, concentration 5
  % inhibition Apo pol 10': 6.068%
  % inhibition Apol 90': 7.311%
  % inhibition apPOL 180': 8.013%
DRC-1, concentration 10
  % inhibition Apo pol 10': 24.2091%
  % inhibition Apol 90': 23.2588%
  % inhibition apPOL 180': 23.6538%
DRC-1, concentration 20
  % inhibition Apo pol 10': 48.7622%
  % inhibition Apol 90': 44.3755%
  % inhibition apPOL 180': 40.1403%
DRC-1, concentration 40
  % inhibition Apo pol 10': 76.2717%
  % inhibition Apol 90': 72.221%
  % inhibition apPOL 180': 67.3971%
DRC-1, concentration 80
  % inhibition Apo pol 10': 83.8971%
  % inhibition Apol 90': 80.3053%
  % inhibition apPOL 180': 76.7403%
DRC-2, concentration 2.5
  % inhibition Apo pol 5': -4%
  % inhibition Apol 40': -2.41%
  % inhibition ApPOL 90': -1.64%
  % inhibition apPOL 180': -2%
DRC-2, concentration 5
  % inhibition Apo pol 5': -4.49%
  % inhibition Apol 40': -3%
  % inhibition ApPOL 90': -0.605%
  % inhibition apPOL 180': 1.35%
DRC-2, concentration 10
  % inhibition Apo pol 5': 16%
  % inhibition Apol 40': 21%
  % inhibition ApPOL 90': 22%
  % inhibition apPOL 180': 23%
DRC-2, concentration 20
  % inhibition Apo pol 5': 26%
  % inhibition Apol 40': 39%
  % inhibition ApPOL 90': 43%
  % inhibition apPOL 180': 46%
DRC-2, concentration 40
  % inhibition Apo pol 5': 41%
  % inhibition Apol 40': 57%
  % inhibition ApPOL 90': 64%
  % inhibition apPOL 180': 68%
DRC-2, concentration 80
  % inhibition Apo pol 5': 41%
  % inhibition Apol 40': 57%
  % inhibition ApPOL 90': 62%
  % inhibition apPOL 180': 66%
Primary screen value, DNA Pol
  DNA Pol: 50

## COc1ccc(C2CC(c3ccc(Cl)cc3Cl)Nc3nc(N)nn32)cc1OC (centres unmarked) [Molecule 43, COc1cc(ccc1OC)C1CC(Nc2n1nc(n2)N)c1ccc(cc1Cl)Cl]
186 hits, DNA Pol (screen value), unit not given
  DNA Pol: 50
'DNA Pol' (screen value), unit not given
  DNA Pol: 50
DRC-1, read at 10', concentration 2.5
  % inhibition Apo pol 10' 2.5: 35%
DRC-1, read at 10', concentration 5
  % inhibition Apo pol 10' 5: 39%
DRC-1, read at 10', concentration 10
  % inhibition Apo pol 10' 10: 50%
DRC-1, read at 10', concentration 20
  % inhibition Apo pol 10' 20: 56%
DRC-1, read at 10', concentration 40
  % inhibition Apo pol 10' 40: 63%
DRC-1, read at 10', concentration 80
  % inhibition Apo pol 10' 80: 71%
DRC-1, read at 90', concentration 2.5
  % inhibition Apol 90' 2.5: 28%
DRC-1, read at 90', concentration 5
  % inhibition Apol 90' 5: 32%
DRC-1, read at 90', concentration 10
  % inhibition Apol 90' 10: 43%
DRC-1, read at 90', concentration 20
  % inhibition Apol 90' 20: 51%
DRC-1, read at 90', concentration 40
  % inhibition Apol 90' 40: 58%
DRC-1, read at 90', concentration 80
  % inhibition Apol 90' 80: 67%
DRC-1, concentration 2.5
  % inhibition apPOL 180' 2.5: 22%
DRC-1, concentration 5
  % inhibition apPOL 180' 5: 25%
DRC-1, concentration 10
  % inhibition apPOL 180' 10: 35%
DRC-1, concentration 20
  % inhibition apPOL 180' 20: 43%
DRC-1, concentration 40
  % inhibition apPOL 180' 40: 52%
DRC-1, concentration 80
  % inhibition apPOL 180' 80: 62%
DRC-2, concentration 5
  % inhibition Apo pol 5': 22%
  % inhibition Apol 40': 29%
  % inhibition ApPOL 90': 29%
  % inhibition apPOL 180' 5: 21%
DRC-2, concentration 10
  % inhibition Apo pol 5': 28%
  % inhibition apPOL 180': 30%
  % inhibition apPOL 180' 10: 30%
DRC-2, concentration 20
  % inhibition Apo pol 5': 30%
  % inhibition Apol 40': 42%
  % inhibition ApPOL 90': 42%
  % inhibition apPOL 180': 35%
  % inhibition apPOL 180' 20: 35%
DRC-2, concentration 40
  % inhibition Apo pol 5': 39%
  % inhibition ApPOL 90': 50%
  % inhibition apPOL 180': 43%
  % inhibition apPOL 180' 40: 43%
DRC-2, concentration 2.5
  % inhibition Apol 40': 26%
  % inhibition ApPOL 90': 26%
  % inhibition apPOL 180' 2.5: 18%
DRC-2, concentration 80
  % inhibition Apol 40': 51%
  % inhibition ApPOL 90': 52%
  % inhibition apPOL 180' 80: 46%
DRC-2, read at 5', concentration 2.5
  % inhibition Apo pol 5' 2.5: 23%
DRC-2, read at 5', concentration 5
  % inhibition Apo pol 5' 5: 22%
DRC-2, read at 5', concentration 10
  % inhibition Apo pol 5' 10: 28%
DRC-2, read at 5', concentration 20
  % inhibition Apo pol 5' 20: 30%
DRC-2, read at 5', concentration 40
  % inhibition Apo pol 5' 40: 39%
DRC-2, read at 5', concentration 80
  % inhibition Apo pol 5' 80: 38%
DRC-2, read at 40', concentration 2.5
  % inhibition Apol 40' 2.5: 26%
DRC-2, read at 40', concentration 5
  % inhibition Apol 40' 5: 29%
DRC-2, read at 40', concentration 10
  % inhibition Apol 40' 10: 36%
DRC-2, read at 40', concentration 20
  % inhibition Apol 40' 20: 42%
DRC-2, read at 40', concentration 40
  % inhibition Apol 40' 40: 49%
DRC-2, read at 40', concentration 80
  % inhibition Apol 40' 80: 51%
DRC-2, read at 90', concentration 2.5
  % inhibition ApPOL 90' 2.5: 26%
DRC-2, read at 90', concentration 5
  % inhibition ApPOL 90' 5: 29%
DRC-2, read at 90', concentration 10
  % inhibition ApPOL 90' 10: 37%
DRC-2, read at 90', concentration 20
  % inhibition ApPOL 90' 20: 42%
DRC-2, read at 90', concentration 40
  % inhibition ApPOL 90' 40: 50%
DRC-2, read at 90', concentration 80
  % inhibition ApPOL 90' 80: 52%
[2]
  % inhibition Apo pol 10': 35%
  % inhibition Apol 90': 28%
  % inhibition apPOL 180': 22%
First dose-response, concentration 5
  % inhibition Apo pol 10': 39%
[3]
  % inhibition Apo pol 10': 50%
  % inhibition Apol 90': 43%
  % inhibition apPOL 180': 35%
[4]
  % inhibition Apol 90': 51%
  % inhibition apPOL 180': 43%
First dose-response, concentration 40
  % inhibition apPOL 180': 52%

## Cc1ccc(C(=O)/C=C/C=C/C=C/N(C)C)o1 [Molecule 96, CN(/C=C/C=C/C=C/C(=O)c1ccc(o1)C)C]
[1]
  DNA Pol: 48
DRC-1, concentration 2.5
  % inhibition Apo pol 10': 21.8998%
  % inhibition Apol 90': 11.0382%
  % inhibition apPOL 180': 1.481%
DRC-1, concentration 5
  % inhibition Apo pol 10': 52.2247%
  % inhibition Apol 90': 37.6511%
  % inhibition apPOL 180': 22.6897%
DRC-1, concentration 10
  % inhibition Apo pol 10': 71.8634%
  % inhibition Apol 90': 62.1527%
  % inhibition apPOL 180': 46.7432%
DRC-1, concentration 20
  % inhibition Apo pol 10': 65.9561%
  % inhibition Apol 90': 58.9151%
  % inhibition apPOL 180': 45.7545%
DRC-1, concentration 40
  % inhibition Apo pol 10': 68.0612%
  % inhibition Apol 90': 72.0375%
  % inhibition apPOL 180': 68.8362%
DRC-1, concentration 80
  % inhibition Apo pol 10': 57.2941%
  % inhibition Apol 90': 69.2174%
  % inhibition apPOL 180': 73.043%
DRC-2, concentration 2.5
  % inhibition Apo pol 5': 1.29%
  % inhibition Apol 40': 3.43%
  % inhibition ApPOL 90': 1%
  % inhibition apPOL 180': -4.64%
DRC-2, concentration 5
  % inhibition Apo pol 5': 13%
  % inhibition Apol 40': 26%
  % inhibition ApPOL 90': 23%
  % inhibition apPOL 180': 13%
DRC-2, concentration 10
  % inhibition Apo pol 5': 21%
  % inhibition Apol 40': 44%
  % inhibition ApPOL 90': 44%
  % inhibition apPOL 180': 36%
DRC-2, concentration 20
  % inhibition Apo pol 5': 2.29%
  % inhibition Apol 40': 42%
  % inhibition ApPOL 90': 47%
  % inhibition apPOL 180': 47%
DRC-2, concentration 40
  % inhibition Apo pol 5': -21%
  % inhibition Apol 40': 32%
  % inhibition ApPOL 90': 44%
  % inhibition apPOL 180': 51%
DRC-2, concentration 80
  % inhibition Apo pol 5': -45%
  % inhibition Apol 40': 20%
  % inhibition ApPOL 90': 38%
  % inhibition apPOL 180': 53%
Primary screen value, DNA Pol
  DNA Pol: 48
